Reference: patent US20210032257A1, “(E)-1-(4-(DIMETHYLAMINO)BUT-2-ENOYL)PYRROLIDIN-3-YL 4-((3-ISOPROPYL-5-METHYLPYRAZOLO[1,5-A]PYRIMIDIN-7-YL)AMINO)PIPERIDINE-1-CARBOXYLATE FOR INHIBITING CDK7” (Eli Lilly and Company, priority 2017, published 2021)
pIC50: −log10 of the molar value.

Legend:
Assay in all cases: Biomarker study proliferation (CellTiter-Glo)
Format in all cases: cell-based
A375 = tested on: A375
Summary of the method: (§1)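 Seven days' exposure to a 10-point threefold dilution series precedes the CellTiter-Glo luminescence read. Plating uses 5000 cells/well in supplier-recommended medium, and 5 μM staurosporine defines maximal inhibition.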

CORL88 = tested on: CORL88
Summary of the method: as §1

DMS114 = tested on: DMS114
Summary of the method: as §1

HCC2218 = tested on: HCC2218
Summary of the method: as §1

HEYA8 = tested on: HEYA8
Summary of the method: as §1

HT = tested on: HT
Summary of the method: as §1

HUH1 = tested on: HUH1
Summary of the method: as §1

IMR32 = tested on: IMR32
Summary of the method: as §1

KP4 = tested on: KP4
Summary of the method: as §1

Karpas1106 = tested on: Karpas1106
Summary of the method: as §1

MDAMB157 = tested on: MDAMB157
Summary of the method: as §1

NCIH1299 = tested on: NCIH1299
Summary of the method: as §1

NCIH1436 = tested on: NCIH1436
Summary of the method: as §1

NCIH2081 = tested on: NCIH2081
Summary of the method: as §1

NCIH2196 = tested on: NCIH2196
Summary of the method: as §1

SJRH30 = tested on: SJRH30
Summary of the method: as §1

SNU1196 = tested on: SNU1196
Summary of the method: as §1

SNU1 = tested on: SNU1
Summary of the method: as §1

SW1271 = tested on: SW1271
Summary of the method: as §1

[1] = 168 h, read-out: Anti-proliferation effect IC50

SMILES: Cc1cc(NC2CCN(C(=O)O[C@H]3CCN(C(=O)/C=C/CN(C)C)C3)CC2)n2ncc(C(C)C)c2n1 [Example 1, [(3S)-1-[(E)-4-(dimethylamino)but-2-enoyl]pyrrolidin-3-yl] 4-[(3-isopropyl-5-methyl-pyrazolo[1,5-a]pyrimidin-7-yl)amino]piperidine-1-carboxylate]
- Anti-proliferation effect % Inh. (A375; A375, SKIN, 7 days): 86%
- Anti-proliferation effect Outcome (A375; A375, SKIN, 7 days): Cytotoxic (cytotoxic (IC50<1 μM and % inhibition ≥70%))
- pIC50 (A375; Homo sapiens, A-375, 168 h, read-out: Anti-proliferation effect IC50): 7.26
- Anti-proliferation effect % Inh. (CORL88; CORL88, LUNG, 7 days): 34%
- Anti-proliferation effect Outcome (CORL88; CORL88, LUNG, 7 days): Insensitive (insensitive (IC50≥1 μM))
- pIC50 (CORL88; Homo sapiens, COR-L88, 168 h, read-out: Anti-proliferation effect IC50): 5.38
- Anti-proliferation effect % Inh. (DMS114; DMS114, LUNG, 7 days): 65%
- Anti-proliferation effect Outcome (DMS114; DMS114, LUNG, 7 days): Cytostatic (cytostatic (IC50<1 μM and % inhibition <70%))
- pIC50 (DMS114; Homo sapiens, DMS-114, 168 h, read-out: Anti-proliferation effect IC50): 7.85
- Anti-proliferation effect % Inh. (HCC2218; HCC2218, BREAST, 7 days): 41%
- Anti-proliferation effect Outcome (HCC2218; HCC2218, BREAST, 7 days): Cytostatic (cytostatic (IC50<1 μM and % inhibition <70%))
- pIC50 (HCC2218; Homo sapiens, HCC2218, 168 h, read-out: Anti-proliferation effect IC50): 6.25
- pIC50 (HEYA8; HEY A8, 168 h, read-out: Anti-proliferation effect IC50): 6.95
- Anti-proliferation effect % Inh. (HEYA8; HEYA8, OVARY, 7 days): 89%
- Anti-proliferation effect Outcome (HEYA8; HEYA8, OVARY, 7 days): Cytotoxic (cytotoxic (IC50<1 μM and % inhibition ≥70%))
- Anti-proliferation effect % Inh. (HT; BLOOD, 7 days): 64%
- Anti-proliferation effect Outcome (HT; BLOOD, 7 days): Cytostatic (cytostatic (IC50<1 μM and % inhibition <70%))
- pIC50 (HT; Homo sapiens, 168 h, read-out: Anti-proliferation effect IC50): 6.88
- Anti-proliferation effect % Inh. (HUH1; HUH1, LIVER, 7 days): 72%
- Anti-proliferation effect Outcome (HUH1; HUH1, LIVER, 7 days): Cytotoxic (cytotoxic (IC50<1 μM and % inhibition ≥70%))
- pIC50 (HUH1; Homo sapiens, HuH-1, 168 h, read-out: Anti-proliferation effect IC50): 6.89
- pIC50 (IMR32; Homo sapiens, IMR-32, 168 h, read-out: Anti-proliferation effect IC50): 8.70
- Anti-proliferation effect % Inh. (IMR32; IMR32, CNS, 7 days): 100%
- Anti-proliferation effect Outcome (IMR32; IMR32, CNS, 7 days): Cytotoxic (cytotoxic (IC50<1 μM and % inhibition ≥70%))
- pIC50 (KP4; Homo sapiens, KP-4, 168 h, read-out: Anti-proliferation effect IC50): 7.44
- Anti-proliferation effect % Inh. (KP4; KP4, PANCREAS, 7 days): 65%
- Anti-proliferation effect Outcome (KP4; KP4, PANCREAS, 7 days): Cytostatic (cytostatic (IC50<1 μM and % inhibition <70%))
- pIC50 (Karpas1106; [1]): 7.59
- Anti-proliferation effect % Inh. (Karpas1106; Karpas1106, BLOOD, 7 days): 98%
- Anti-proliferation effect Outcome (Karpas1106; Karpas1106, BLOOD, 7 days): Cytotoxic (cytotoxic (IC50<1 μM and % inhibition ≥70%))
- pIC50 (MDAMB157; Homo sapiens, MDA-MB-157, 168 h, read-out: Anti-proliferation effect IC50): 6.06
- Anti-proliferation effect % Inh. (MDAMB157; MDAMB157, BREAST, 7 days): 39%
- Anti-proliferation effect Outcome (MDAMB157; MDAMB157, BREAST, 7 days): Cytostatic (cytostatic (IC50<1 μM and % inhibition <70%))
- pIC50 (NCIH1299; Homo sapiens, NCI-H1299, 168 h, read-out: Anti-proliferation effect IC50): 6.71
- Anti-proliferation effect % Inh. (NCIH1299; NCIH1299, LUNG, 7 days): 44%
- Anti-proliferation effect Outcome (NCIH1299; NCIH1299, LUNG, 7 days): Cytostatic (cytostatic (IC50<1 μM and % inhibition <70%))
- pIC50 (NCIH1436; Homo sapiens, NCI-H1436, 168 h, read-out: Anti-proliferation effect IC50): 6.71
- Anti-proliferation effect % Inh. (NCIH1436; NCIH1436, LUNG, 7 days): 56%
- Anti-proliferation effect Outcome (NCIH1436; NCIH1436, LUNG, 7 days): Cytostatic (cytostatic (IC50<1 μM and % inhibition <70%))
- pIC50 (NCIH2081; Homo sapiens, NCI-H2081, 168 h, read-out: Anti-proliferation effect IC50): 6.35
- Anti-proliferation effect % Inh. (NCIH2081; NCIH2081, LUNG, 7 days): 44%
- Anti-proliferation effect Outcome (NCIH2081; NCIH2081, LUNG, 7 days): Cytostatic (cytostatic (IC50<1 μM and % inhibition <70%))
- pIC50 (NCIH2196; Homo sapiens, NCI-H2196, 168 h, read-out: Anti-proliferation effect IC50): 6.91
- Anti-proliferation effect % Inh. (NCIH2196; NCIH2196, LUNG, 7 days): 63%
- Anti-proliferation effect Outcome (NCIH2196; NCIH2196, LUNG, 7 days): Cytostatic (cytostatic (IC50<1 μM and % inhibition <70%))
- pIC50 (SJRH30; Homo sapiens, SJRH30, 168 h, read-out: Anti-proliferation effect IC50): 7.41
- Anti-proliferation effect % Inh. (SJRH30; SJRH30, SOFT TISSUE, 7 days): 62%
- Anti-proliferation effect Outcome (SJRH30; SJRH30, SOFT TISSUE, 7 days): Cytostatic (cytostatic (IC50<1 μM and % inhibition <70%))
- pIC50 (SNU1196; [1]): 7.37
- Anti-proliferation effect % Inh. (SNU1196; SNU1196, BILIARY, 7 days): 68%
- Anti-proliferation effect Outcome (SNU1196; SNU1196, BILIARY, 7 days): Cytostatic (cytostatic (IC50<1 μM and % inhibition <70%))
- pIC50 (SNU1; Homo sapiens, SNU1, 168 h, read-out: Anti-proliferation effect IC50): 6.98
- Anti-proliferation effect % Inh. (SNU1; SNU1, STOMACH, 7 days): 68%
- Anti-proliferation effect Outcome (SNU1; SNU1, STOMACH, 7 days): Cytostatic (cytostatic (IC50<1 μM and % inhibition <70%))
- pIC50 (SW1271; SW1271, 168 h, read-out: Anti-proliferation effect IC50): 7.62
- Anti-proliferation effect % Inh. (SW1271; SW1271, LUNG, 7 days): 67%
- Anti-proliferation effect Outcome (SW1271; SW1271, LUNG, 7 days): Cytostatic (cytostatic (IC50<1 μM and % inhibition <70%))
